What was measured:
PDE6D = biological target: T1, PDE6D (Homo sapiens, UniProt O43924+Q96SW2); experiment: Western blot, degradation of cellular PDE6D in MV-4-11 cells; assay type: cell-based; settings: MV4-11; tested at 1 μM, MV-4-11 cells, 6-8 hours; read-out: % Degradation compared to DMSO, PDE6D
T1 construct: endogenous in cells; host or cells: MV-4-11
Description: (§1) MV-4-11 cells were grown in RPMI 1640 media supplemented with 10% fetal bovine serum, streptomycin and penicillin.
(§2) Cells were cultured at approximately 10^6 cells per mL and incubated in DMSO or the indicated compounds for 6-8 hours. Whole cell extracts were prepared using RIPA lysis buffer according to manufacturer's protocol (Pierce). Briefly, 4×10^6 cells were washed once in PBS, the cell pellets were resuspended in RIPA lysis buffer and allowed to incubate for 15 minutes on ice. Cells debris was removed by centrifugation and the cleared whole cell lysates were transferred to new tubes for further analysis.
(§3) For Western blot analysis, whole cell protein extracts were separated on 4-12% SDS-polyacrylamide gels, transferred to nitrocellulose and probed with the indicated primary antibodies. Membranes were subsequently washed and probed with the appropriate IRDye secondary antibodies (LI-COR). The signal was detected using the Odyssey Imaging System (LI-COR).
(§4) The following antibodies were used in these studies: Anti-PDE6D antibody: Santa Cruz Biotechnology, sc-166854 (Dallas, Tex.); Anti-Ikaros: Abcam, ab191394 (Cambridge, Mass.); anti-CK1α antibody: Abcam, ab108296 (Cambridge, Mass.); β-Actin (8H10D10) mouse monoclonal antibody: Cell Signaling Technology, #3700 (Danvers, Mass.); IRDye 680RD Goat anti-rabbit antibody: LI-COR, 926-68071 (Lincoln, Nebr.); and IRDye 800CW Goat anti-mouse antibody: LI-COR, 926-32210 (Lincoln, Nebr.).
(§5) The % degradation values are reported as “A”, “B”, “C”, or “D.” “A” represents a % degradation value of less than 25% (value<25%); “B” represents a % degradation value of equal to or more than 25% and less than 50% (25%≤value<50%); “C” represents a % degradation value of equal to or more than 50% and less than 75% (50%≤value<75%); and “D” represents a % degradation value of equal to or more than 75% (value≥75%). […] was used as control.

IL-2 = IL-2 inhibition assay, anti-CD3 (OKT3) stimulated PBMCs, Mesoscale IL-2 analysis; assay type: cell-based, human; settings: Homo sapiens, PBMC, PBMCs on anti-CD3, 24 h, fold difference from DMSO control, read-out: IL-2, % Induction compared to DMSO
Description: For the IL-2 analysis, 96 well plates were precoated with 1 μg/mL anti-human CD3 antibody (OKT3, eBioscience Inc., San Diego, Calif.). After washing with PBS, the indicated compound was added (50 μL/well) followed by PBMCs diluted at 3-4 million cells/mL (150 μL/well). Plates were incubated for 24 h and the supernatants collected for Mesoscale IL-2 analysis. IL-2 activity is measured as fold difference from the DMSO control. […]
In Table 4, the fold-change values are reported as “A”, “B”, “C”, or “D”. “A” represents a fold-change value of equal to or less than 0.5 (value≤0.5); “B” represents a fold-change value of more than 0.5 and equal to or less than 1 (0.5<value≤1); “C” represents a fold-change value of more than 1 and less than 1.5 (1<value<1.5); and “D” represents a fold-change value of equal to or more than 1.5 (value≥1.5).

TNFα = TNFα inhibition, LPS-induced PBMCs or CD14+ monocytes, Meso Scale assay; assay type: cell-based; settings: LPS 100 ng/mL 18-24 h, read-out: % Inhibition compared to DMSO, TNFα; for inhibition at 1 µM: tested at 1 μM; for inhibition at 10 µM: tested at 10 μM
Description: (§6) Either frozen primary blood mononuclear cells (PBMCs) or frozen CD14+ mobilized peripheral blood monocytes were purchased from AllCells (PB003F, Normal Peripheral Blood MNC (Alameda, Calif.)). Cells were quick thawed, washed 1-time with RPMI-1640 (10% FBS/1% Pen-Strep) and plated in 96 well plates at 200,000 cells per well. Cells were pretreated with DMSO only or with the indicated compound for 1 h and then induced with 100 ng/mL lipopolysaccharide (LPS) for 18-24 h. The supernatant was analyzed for IL-1β, IL-6, and TNFα, using Meso Scale assay according to manufacturer's protocol. The negative control wells were treated with DMSO.
(§7) IL-1β, IL-6 and TNFα activities were tested at two different concentrations (1 μM and 10 μM) and the results are shown in Tables 2 and 3 respectively.

CK1α = biological target: T2, CK1α (Homo sapiens, UniProt P48729+Q96SW2); experiment: Western blot, degradation of cellular CK1α in MV-4-11 cells; assay type: cell-based; settings: MV4-11, tested at 1 μM, 6-8 hours, read-out: % Degradation compared to DMSO, CK1α
T2 construct: endogenous in cells; host or cells: MV-4-11
Description: as §1, §2, §3, §4, §5

Ikaros = biological target: T3, Ikaros (Homo sapiens, UniProt Q13422+Q96SW2); experiment: Western blot, degradation of cellular Ikaros in MV-4-11 cells; assay type: cell-based; settings: MV4-11, tested at 1 μM, 6-8 hours, read-out: % Degradation compared to DMSO, Ikaros
T3 construct: endogenous in cells; host or cells: MV-4-11
Description: as §1, §2, §3, §4, §5

IL-1β = IL-1β inhibition, LPS-induced PBMCs or CD14+ monocytes, Meso Scale assay; assay type: cell-based; settings: LPS 100 ng/mL 18-24 h, read-out: % Inhibition compared to DMSO, IL-1β; for inhibition at 1 µM: tested at 1 μM; for inhibition at 10 µM: tested at 10 μM
Description: as §6, §7

IL-6 = IL-6 inhibition, LPS-induced PBMCs or CD14+ monocytes, Meso Scale assay; assay type: cell-based; settings: LPS 100 ng/mL 18-24 h, read-out: % Inhibition compared to DMSO, IL-6; for inhibition at 1 µM: tested at 1 μM; for inhibition at 10 µM: tested at 10 μM
Description: as §6, §7

T1 sequence (O43924 whole entry): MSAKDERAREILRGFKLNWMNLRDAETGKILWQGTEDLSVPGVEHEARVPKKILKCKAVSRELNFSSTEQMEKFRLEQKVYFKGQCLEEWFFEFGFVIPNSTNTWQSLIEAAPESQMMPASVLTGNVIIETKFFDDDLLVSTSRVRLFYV
T1 sequence (Q96SW2 whole entry): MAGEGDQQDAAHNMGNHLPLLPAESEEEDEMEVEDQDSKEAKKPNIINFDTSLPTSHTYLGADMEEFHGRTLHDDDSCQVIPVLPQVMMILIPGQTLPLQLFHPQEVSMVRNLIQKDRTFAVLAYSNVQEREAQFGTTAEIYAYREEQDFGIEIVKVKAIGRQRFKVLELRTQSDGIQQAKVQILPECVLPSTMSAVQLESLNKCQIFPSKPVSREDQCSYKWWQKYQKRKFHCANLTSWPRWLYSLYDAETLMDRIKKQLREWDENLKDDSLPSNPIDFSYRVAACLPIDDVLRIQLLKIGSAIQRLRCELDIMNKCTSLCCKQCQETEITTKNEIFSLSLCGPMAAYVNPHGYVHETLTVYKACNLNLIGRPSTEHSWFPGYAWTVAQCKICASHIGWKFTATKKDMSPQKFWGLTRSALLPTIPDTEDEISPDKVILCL
T1 sequence (Q16531 whole entry partner): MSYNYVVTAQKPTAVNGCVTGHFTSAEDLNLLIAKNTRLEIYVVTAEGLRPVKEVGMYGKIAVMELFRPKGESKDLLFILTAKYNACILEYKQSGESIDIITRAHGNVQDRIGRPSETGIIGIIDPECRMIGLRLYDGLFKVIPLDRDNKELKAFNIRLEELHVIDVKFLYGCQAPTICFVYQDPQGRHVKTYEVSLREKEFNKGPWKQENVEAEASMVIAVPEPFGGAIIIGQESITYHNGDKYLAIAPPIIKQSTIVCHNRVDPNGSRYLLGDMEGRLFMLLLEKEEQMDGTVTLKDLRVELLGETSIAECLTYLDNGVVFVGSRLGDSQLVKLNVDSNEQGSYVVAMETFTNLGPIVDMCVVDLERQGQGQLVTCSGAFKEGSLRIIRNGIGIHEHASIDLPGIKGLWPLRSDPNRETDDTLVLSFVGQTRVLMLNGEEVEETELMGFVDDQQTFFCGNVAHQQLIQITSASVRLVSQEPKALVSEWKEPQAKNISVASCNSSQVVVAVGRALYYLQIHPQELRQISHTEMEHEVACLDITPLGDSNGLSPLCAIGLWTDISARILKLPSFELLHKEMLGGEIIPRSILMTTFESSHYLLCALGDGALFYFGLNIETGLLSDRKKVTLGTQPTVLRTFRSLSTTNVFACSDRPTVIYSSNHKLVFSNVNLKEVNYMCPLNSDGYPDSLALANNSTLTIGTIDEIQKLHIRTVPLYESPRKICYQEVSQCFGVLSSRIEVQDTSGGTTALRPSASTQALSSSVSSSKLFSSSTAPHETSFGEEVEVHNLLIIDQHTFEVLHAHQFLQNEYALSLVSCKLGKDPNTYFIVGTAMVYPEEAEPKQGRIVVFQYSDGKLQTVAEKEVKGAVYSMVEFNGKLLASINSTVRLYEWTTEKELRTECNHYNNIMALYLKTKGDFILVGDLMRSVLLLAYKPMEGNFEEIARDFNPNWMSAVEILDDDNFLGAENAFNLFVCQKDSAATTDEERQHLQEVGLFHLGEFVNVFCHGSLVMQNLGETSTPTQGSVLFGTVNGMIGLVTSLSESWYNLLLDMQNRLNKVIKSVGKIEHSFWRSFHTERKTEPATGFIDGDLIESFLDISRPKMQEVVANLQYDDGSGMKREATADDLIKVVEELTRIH
T3 sequence (Q13422 whole entry): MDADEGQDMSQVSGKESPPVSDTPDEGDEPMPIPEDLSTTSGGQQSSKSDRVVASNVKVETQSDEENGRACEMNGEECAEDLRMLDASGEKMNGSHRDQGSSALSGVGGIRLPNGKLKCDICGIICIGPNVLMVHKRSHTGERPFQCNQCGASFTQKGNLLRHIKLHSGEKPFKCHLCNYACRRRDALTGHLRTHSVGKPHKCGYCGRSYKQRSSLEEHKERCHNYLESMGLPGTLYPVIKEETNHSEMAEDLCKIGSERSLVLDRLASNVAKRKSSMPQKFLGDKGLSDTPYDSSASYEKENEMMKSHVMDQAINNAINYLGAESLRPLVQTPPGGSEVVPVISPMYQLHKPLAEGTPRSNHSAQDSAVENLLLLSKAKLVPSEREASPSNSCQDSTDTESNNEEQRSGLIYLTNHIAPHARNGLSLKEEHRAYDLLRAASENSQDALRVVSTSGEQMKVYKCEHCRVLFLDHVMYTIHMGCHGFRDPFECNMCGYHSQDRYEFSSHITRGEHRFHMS
T3 sequence (Q96SW2 whole entry): as the sequence (Q96SW2 whole entry) above
T3 sequence (Q16531 whole entry partner): as the sequence (Q16531 whole entry partner) above
T2 sequence (P48729 whole entry): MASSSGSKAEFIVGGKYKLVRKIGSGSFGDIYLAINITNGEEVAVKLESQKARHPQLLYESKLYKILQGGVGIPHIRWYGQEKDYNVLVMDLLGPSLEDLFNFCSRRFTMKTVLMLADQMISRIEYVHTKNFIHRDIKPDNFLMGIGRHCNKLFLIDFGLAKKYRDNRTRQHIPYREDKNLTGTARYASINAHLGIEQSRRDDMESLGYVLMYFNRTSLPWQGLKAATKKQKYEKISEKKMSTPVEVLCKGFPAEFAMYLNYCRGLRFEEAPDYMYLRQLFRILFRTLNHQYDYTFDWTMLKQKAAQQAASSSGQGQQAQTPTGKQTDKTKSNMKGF
T2 sequence (Q96SW2 whole entry): as the sequence (Q96SW2 whole entry) above
T2 sequence (Q16531 whole entry partner): as the sequence (Q16531 whole entry partner) above

Structure (SMILES) | Dmax at 1 µM (PDE6D) | fold induction at 1 µM (IL-2) | fold induction at 10 µM (IL-2) | inhibition at 1 µM (TNFα) | inhibition at 10 µM (TNFα) | Dmax at 1 µM (CK1α) | Dmax at 1 µM (Ikaros) | inhibition at 1 µM (IL-1β) | inhibition at 10 µM (IL-1β) | inhibition at 1 µM (IL-6) | inhibition at 10 µM (IL-6)
O=C1CCC(N2Cc3c(cccc3C3CCCC3)C2=O)C(=O)N1 (stereo not shown) [Compound 2] | ≥ 75% | 0.5 to 1 | 0.5 to 1 | < 10% | 10 to 25% | 25 to 50% | < 25% | < 10% | 10 to 25% | 10 to 25% | 10 to 25%
O=C1CCC(N2Cc3c(cc(F)cc3C3CC4CCC3C4)C2=O)C(=O)N1 (stereo not shown) [Compound 25] | 50 to 75% | 1 to 1.5 | 0.5 to 1 | 10 to 25% | 10 to 25% | 25 to 50% | 25 to 50% | < 10% | 25 to 50% | < 10% | < 10%
CCC1(N2Cc3c(cc(F)cc3C3CCCC3)C2=O)CCC(=O)NC1=O (stereo not shown) [Compound 18, 3-(4-Cyclopentyl-6-fluoro-1-oxoisoindolin-2-yl)-3-ethylpiperidine-2,6-dione] | 25 to 50% | 1 to 1.5 | 0.5 to 1 | < 10% | 25 to 50% | < 25% | < 25% | < 10% | 10 to 25% | < 10% | < 10%
O=C1CCC(N2Cc3c(cc(F)c(F)c3C3CCCC3)C2=O)C(=O)N1 (stereo not shown) [Compound 16] | ≥ 75% | 0.5 to 1 | 0.5 to 1 | < 10% | 10 to 25% | 50 to 75% | < 25% | < 10% | < 10% | < 10% | < 10%
O=C1CC(N2Cc3c(cc(F)cc3C3CCCC3)C2=O)C(=O)N1 (stereo not shown) [Compound 19, 3-(4-Cyclopentyl-6-fluoro-1-oxoisoindolin-2-yl)pyrrolidine-2,5-dione] | ≥ 75% | 0.5 to 1 | 0.5 to 1 | < 10% | < 10% | < 25% | < 25% | < 10% | < 10% | < 10% | < 10%
CC1(C)CCCC1c1cc(F)cc2c1CN(C1CCC(=O)NC1=O)C2=O (stereo not shown) [Compound 26] | 50 to 75% | 0.5 to 1 | 0.5 to 1 | < 10% | 10 to 25% | < 25% | 25 to 50% | < 10% | < 10% | < 10% | < 10%
O=C1CCC(N2Cc3c(cc(F)cc3C3CCC3)C2=O)C(=O)N1 (stereo not shown) [Compound 20] | ≥ 75% | ≤ 0.5 | ≤ 0.5 | 10 to 25% | 25 to 50% | 50 to 75% | 25 to 50% | < 10% | < 10% | < 10% | < 10%
O=C1CCC(N2Cc3c(cc(F)cc3C3CCC(F)(F)CC3)C2=O)C(=O)N1 (stereo not shown) [Compound 11] | ≥ 75% | 0.5 to 1 | 0.5 to 1 | < 10% | < 10% | 25 to 50% | ≥ 75% | < 10% | < 10% | < 10% | < 10%

From patent US11352338B2, “Substituted isoindolinones” (BioTheryX, Inc., priority 2018, dated 2022)
